For 28 compounds, inhibition of growth results are on record in ChEMBL document CHEMBL3046249, “Synthesis and antifungal activity of cinnamic acid esters” (1996).

Holding throughout (type): functional
Experiment [1] deals with Pythium. The experiment is described as follows: Antimicrobial activity against Pythium sp. assessed as growth inhibition at 100 ppm by agar dilution method. As to conditions: read-out: GI. Background: In agar dilution the substance is mixed into plates at graded concentrations.
Experiment [2] concerns Athelia rolfsii. The experiment is described as follows: Antimicrobial activity against Athelia rolfsii assessed as growth inhibition at 100 ppm by agar dilution method. The conditions noted are these: Agroathelia rolfsii; read-out: GI.
The subject of experiment [3] is Athelia rolfsii. The experiment is described as follows: Antimicrobial activity against Athelia rolfsii assessed as growth inhibition at 10 ppm by agar dilution method. The conditions noted are these: Agroathelia rolfsii; read-out: GI.
The subject of experiment [4] is Pythium. The experiment is described as follows: Antimicrobial activity against Pythium sp. assessed as growth inhibition at 10 ppm by agar dilution method. As to conditions: read-out: GI.

Take `Cc1ccc(C(C)C)c(OC(=O)/C=C/c2ccccc2)c1`: the inhibition of growth at 100 ppm in the experiment with Pythium [1] is 54%; with Athelia rolfsii [2], 45%.

`CCCOC(=O)/C=C/c1ccc(O)c(OC)c1`: the inhibition of growth at 100 ppm with Pythium [1] stood at 9%; in the experiment on Athelia rolfsii [2] it was 26%.

For `COc1cc(/C=C/C(=O)OC(C)C)ccc1O`, the inhibition of growth at 100 ppm with Pythium [1] came out at 18%; in the experiment on Athelia rolfsii [2] it was 38%.

Take `CCCCOC(=O)/C=C/c1ccc(O)c(OC)c1`: the inhibition of growth at 100 ppm with Pythium [1] and in the experiment with Athelia rolfsii [2] was 0% in each case.

`CCCOC(=O)/C=C/c1ccc(O)cc1`: the inhibition of growth at 100 ppm in the experiment with Pythium [1] came out at 91%; in the experiment on Athelia rolfsii [2] it was 70%. The inhibition of growth at 10 ppm is 9% in the experiment on Athelia rolfsii [3] and 31% in the experiment on Pythium [4].

Turning to `CCCCOC(=O)/C=C/c1ccc(O)cc1`, the inhibition of growth at 100 ppm in the experiment with Pythium [1] came to 71%; with Athelia rolfsii [2], 81%. In addition, the figures for the inhibition of growth at 10 ppm in the experiment with Athelia rolfsii [3] and in the experiment on Pythium [4] were 29% and 35%, respectively.

On to `O=C(/C=C/c1ccc(O)cc1)Oc1ccccc1`, for which the inhibition of growth at 100 ppm with Pythium [1] worked out at 80%; in the experiment with Athelia rolfsii [2] it was 53%. In the experiment on Pythium [4], the inhibition of growth at 10 ppm amounted to 16%.

Consider `CC(C)=CCCC(C)CCOC(=O)/C=C/c1ccc(O)cc1` (stereo not given), for which the values for the inhibition of growth at 100 ppm in the experiment on Pythium [1] and with Athelia rolfsii [2] were 63% and 55%, respectively.

`Cc1ccc(OC(=O)/C=C/c2ccc(O)cc2)c(C(C)C)c1`: the inhibition of growth at 100 ppm with Pythium [1] was 36%; in the experiment on Athelia rolfsii [2], 38%.

With `Cc1ccc(C(C)C)c(OC(=O)/C=C/c2ccc(O)cc2)c1`, the results for the inhibition of growth at 100 ppm in the experiment on Pythium [1] and in the experiment on Athelia rolfsii [2] were 33% and 31%, respectively.

Take `COc1cc(/C=C/C(=O)Oc2ccc(C)cc2C(C)C)ccc1O`: the results for the inhibition of growth at 100 ppm in the experiment on Pythium [1] and with Athelia rolfsii [2] were 49% and 37%, respectively.

For the compound `COc1cc(/C=C/C(=O)Oc2cc(C)ccc2C(C)C)ccc1O`, the inhibition of growth at 100 ppm in the experiment with Pythium [1] was 9%; with Athelia rolfsii [2] it was 58%.

For `C=CCc1ccc(OC(=O)/C=C/c2ccc(O)c(OC)c2)c(OC)c1`, the results for the inhibition of growth at 100 ppm in the experiment with Pythium [1] and with Athelia rolfsii [2] were 31% and 38%, respectively.

Consider `CC(C)=CCCC(C)CCOC(=O)/C=C/c1ccccc1` (stereo not given), for which the inhibition of growth at 100 ppm in the experiment with Pythium [1] and in the experiment with Athelia rolfsii [2] was 0% in each case.

With `C=CCc1ccc(OC(=O)/C=C/c2ccccc2)c(OC)c1`, the inhibition of growth at 100 ppm is 28% in the experiment with Pythium [1] and 22% with Athelia rolfsii [2].

Take `COC(=O)/C=C/c1ccc(O)c(OC)c1`: the inhibition of growth at 100 ppm with Pythium [1] is 0%; in the experiment with Athelia rolfsii [2], 37%.

With `O=C(O)/C=C/c1ccccc1` [CINNAMIC ACID], the figures for the inhibition of growth at 100 ppm in the experiment on Pythium [1] and in the experiment on Athelia rolfsii [2] were 97% and 100%, respectively. Also, the inhibition of growth at 10 ppm with Athelia rolfsii [3] was found to be 24%; with Pythium [4], 12%.

With `O=C(O)/C=C/c1ccc(O)cc1` [COUMARIC ACID], the inhibition of growth at 100 ppm was 10% in the experiment on Pythium [1] and 46% with Athelia rolfsii [2].

In the case of `COC(=O)/C=C/c1ccccc1` [E-METHYL CINNAMATE], the inhibition of growth at 100 ppm in the experiment with Pythium [1] is 66%; with Athelia rolfsii [2], 53%.

`CCOC(=O)/C=C/c1ccc(O)c(OC)c1` [ETHYL FERULATE]: the inhibition of growth at 100 ppm with Pythium [1] is 50%; in the experiment with Athelia rolfsii [2], 43%.

Regarding `CCOC(=O)/C=C/c1ccc(O)cc1` [ETHYL P-COUMARATE], the results for the inhibition of growth at 100 ppm with Pythium [1] and with Athelia rolfsii [2] were 87% and 45%, respectively. Moreover, the inhibition of growth at 10 ppm in the experiment with Athelia rolfsii [3] was determined as 8%; in the experiment with Pythium [4], 29%.

For `COc1cc(/C=C/C(=O)O)ccc1O` [FERULATE], the inhibition of growth at 100 ppm in the experiment with Pythium [1] turned out to be 48%; in the experiment with Athelia rolfsii [2], 54%.

For `CCCCCCCOC(=O)/C=C/c1ccccc1` [HEPTYL CINNAMATE], the inhibition of growth at 100 ppm with Pythium [1] stood at 42%; in the experiment on Athelia rolfsii [2], 10%.

For the compound `CC(C)OP(=O)(OC(C)C)SCc1ccccc1` [IPROBENFOS], the inhibition of growth at 100 ppm in the experiment on Pythium [1] worked out at 89%; in the experiment with Athelia rolfsii [2], 100%. Moreover, the results for the inhibition of growth at 10 ppm in the experiment on Athelia rolfsii [3] and in the experiment on Pythium [4] were 69% and 42%, respectively.

For `CC(C)OC(=O)/C=C/c1ccc(O)cc1` [ISOPROPYL 3-(4-HYDROXYPHENYL)ACRYLATE], the inhibition of growth at 100 ppm in the experiment with Pythium [1] was determined as 98%; with Athelia rolfsii [2] it was 84%. Also, the inhibition of growth at 10 ppm in the experiment on Athelia rolfsii [3] was 10%; with Pythium [4], 41%.

As to `COC(=O)/C=C/c1ccc(O)cc1` [METHYL P-HYDROXYCINNAMATE], the inhibition of growth at 100 ppm with Pythium [1] was 54%; with Athelia rolfsii [2], 41%. Also, in the experiment with Pythium [4], the inhibition of growth at 10 ppm was determined as 0%.

Consider `CCCCCCCCOC(=O)/C=C/c1ccccc1` [OCTYL CINNAMATE], for which the inhibition of growth at 100 ppm amounted to 56% with Pythium [1] and 13% with Athelia rolfsii [2].

In the case of `O=C(/C=C/c1ccccc1)OCCc1ccccc1` [PHENETHYL CINNAMATE], the inhibition of growth at 100 ppm in the experiment on Pythium [1] worked out at 28%; in the experiment on Athelia rolfsii [2], 22%.
